Assay results taken from patent publication US10155741B2, “Pyridine or pyrimidine derivatives” (Hoffmann-La Roche Inc., priority 2015, dated 2018).

Experiments:
[1] = molecular target: T1, human EAAT3 (Homo sapiens, UniProt P43005); assay: FLIPR Membrane Potential (FMP) assay, antagonist potency at human EAAT3; assay type: cell-based; conditions: HEK-293 cells stably expressing human EAAT3; L-glutamate as agonist at EC80; antagonist applied 15 min before; Kb by Cheng-Prusoff equation
T1 construct: expressed in transfected cells
T1 sequence (P43005 1-524): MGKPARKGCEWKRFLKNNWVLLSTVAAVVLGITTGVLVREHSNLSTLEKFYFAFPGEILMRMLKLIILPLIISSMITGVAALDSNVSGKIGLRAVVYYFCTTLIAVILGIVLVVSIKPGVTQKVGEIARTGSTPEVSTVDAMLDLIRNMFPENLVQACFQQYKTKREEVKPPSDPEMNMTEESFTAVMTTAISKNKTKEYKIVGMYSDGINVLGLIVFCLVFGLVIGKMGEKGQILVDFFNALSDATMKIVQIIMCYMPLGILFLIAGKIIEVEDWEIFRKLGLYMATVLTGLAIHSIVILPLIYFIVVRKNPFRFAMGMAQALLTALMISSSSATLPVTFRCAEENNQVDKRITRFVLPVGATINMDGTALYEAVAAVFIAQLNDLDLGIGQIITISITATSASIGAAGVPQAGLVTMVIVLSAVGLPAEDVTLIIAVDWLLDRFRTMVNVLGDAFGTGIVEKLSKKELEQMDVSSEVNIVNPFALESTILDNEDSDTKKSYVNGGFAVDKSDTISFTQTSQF
Experimental: The FLIPR Membrane Potential (FMP) Assay
HEK-293 cells stably expressing human EAAT3 were seeded at 55 000 cells/well in growth medium (DMEM glutamate free (Invitrogen 11960-044), 1% Pen Strep (10 ml/l GIBCO BRL No 15140-023), 10% FCS non dialysed heat inactivated, 5 mg/l puromycin) in poly-D-lysine treated 96-well black microtiter plates with clear-bottom. After 24 h, the growth medium was removed and 100 μl/well of Krebs buffer (140 mM NaCl, 4.7 mM KCl, 2.5 mM CaCl2, 1.2 mM MgCl2, 11 mM HEPES, 10 mM D-glucose, pH=7.4) added. The cells were then loaded by adding 100 μl/well FMP assay dye (FLIPR Membrane Potential assay reagent, Molecular Devices). The 96-well plates were then incubated at 37° C. for 1 h. The depolarization of the cells will cause more dye to enter in the cells, where it will bind to intracellular proteins and lipids and cause an increase in the fluorescence signal. Antagonist potency at human EAAT3 was determined by using L-glutamate as agonist at a concentration which gives 80% of the maximum response. The antagonists were applied 15 min before the application of the agonist L-glutamate. The assays were performed at room temperature and measurements done by using a Fluorometric Imaging Plate Reader (FLIPR, Molecular Devices) and filter #2. Responses were measured as peak increase in fluorescence minus basal (i.e. fluorescence without addition of L-glutamate). Kb was determined using the Cheng-Prusoff equation Kb=IC50/[1+(A/EC50)], where IC50 is the concentration of the antagonist producing 50% inhibition, A is the concentration of the agonist against which the IC50 is being determined (at EC80) and EC50 is the concentration of the agonist producing 50% […].

CC(C)c1ncncc1-c1cc(C(=O)NC2(C)CCS(=O)(=O)C2)cc(-c2ccc(F)cc2)n1 (racemic) [Example 17, (RS)-2-(4-Fluorophenyl)-N-(3-methyl-1,1-dioxothiolan-3-yl)-6-(4-propan-2-yl-pyrimidin-5-yl)-pyridine-4-carboxamide]
Kb [1]: 270 nM

CC(C)c1ncncc1-c1cc(C(=O)NC(C)(C)C)cc(-c2ccc(Cl)cc2)n1 [Example 1, N-tert-Butyl-2-(4-chlorophenyl)-6-(4-propan-2-yl-pyrimidin-5-yl)-pyridine-4-carboxamide]
Kb [1]: 100 nM

CC(C)c1ncncc1-c1cc(C(=O)NC(C)(C)C)cc(-c2ccc(F)cc2)n1 [Example 2, N-tert-Butyl-2-(4-fluorophenyl)-6-(4-propan-2-yl-pyrimidin-5-yl)-pyridine-4-carboxamide]
Kb [1]: 120 nM

CC(C)c1ncncc1-c1cc(C(=O)NC(C)(C)C)cc(-c2ccc(C(F)(F)F)cc2)n1 [Example 3, N-tert-Butyl-2-(4-propan-2-yl-pyrimidin-5-yl)-6-[4-(trifluoromethyl)-phenyl]-pyridine-4-carboxamide]
Kb [1]: 110 nM

Cc1ccncc1-c1cc(C(=O)NC(C)(C)C)cc(-c2ccc(F)cc2)n1 [Example 4, N-tert-Butyl-2-(4-fluorophenyl)-6-(4-methylpyridin-3-yl)-pyridine-4-carboxamide]
Kb [1]: 260 nM

Cc1ccncc1-c1cc(C(=O)NC(C)(C)C)cc(-c2ccc(Cl)cc2)n1 [Example 5, N-tert-Butyl-2-(4-chlorophenyl)-6-(4-methylpyridin-3-yl)-pyridine-4-carboxamide]
Kb [1]: 220 nM

Cc1ccc(-c2cc(C(=O)NC(C)(C)C)cc(-c3cncnc3C(C)C)n2)cc1 [Example 6, N-tert-Butyl-2-(4-methylphenyl)-6-(4-propan-2-yl-pyrimidin-5-yl)-pyridine-4-carboxamide]
Kb [1]: 140 nM

CC(C)c1ncncc1-c1cc(C(=O)NC(C)(C)C)cc(-c2ccc(F)c(F)c2)n1 [Example 7, N-tert-Butyl-2-(3,4-difluorophenyl)-6-(4-propan-2-yl-pyrimidin-5-yl)-pyridine-4-carboxamide]
Kb [1]: 110 nM | melting point: 178 °C

Cc1cc(-c2cc(C(=O)NC(C)(C)C)cc(-c3cncnc3C(C)C)n2)ccc1F [Example 8, N-tert-Butyl-2-(4-fluoro-3-methylphenyl)-6-(4-propan-2-yl-pyrimidin-5-yl)-pyridine-4-carboxamide]
Kb [1]: 260 nM

CC(C)c1ncncc1-c1cc(C(=O)NC(C)(C)C)cc(-c2ccc(Cl)c(F)c2)n1 [Example 9, N-tert-Butyl-2-(4-chloro-3-fluorophenyl)-6-(4-propan-2-yl-pyrimidin-5-yl)-pyridine-4-carboxamide]
Kb [1]: 260 nM

CC(C)c1ncncc1-c1cc(C(=O)NC(C)(C)C)cc(-c2ccc(C3CC3)cc2)n1 [Example 10, N-tert-Butyl-2-(4-cyclopropyl-phenyl)-6-(4-propan-2-yl-pyrimidin-5-yl)-pyridine-4-carboxamide]
Kb [1]: 290 nM

CC(C)c1ncncc1-c1cc(C(=O)NC(C)(C)C2CC2)cc(-c2ccc(Cl)cc2)n1 [Example 11, 2-(4-Chlorophenyl)-N-(2-cyclopropyl-propan-2-yl)-6-(4-propan-2-yl-pyrimidin-5-yl)-pyridine-4-carboxamide]
Kb [1]: 150 nM

CC(C)c1ncncc1-c1cc(C(=O)NC(C)(C)C#N)cc(-c2ccc(Cl)cc2)n1 [Example 12, 2-(4-Chlorophenyl)-N-(2-cyanopropan-2-yl)-6-(4-propan-2-yl-pyrimidin-5-yl)-pyridine-4-carboxamide]
Kb [1]: 470 nM

CC(C)c1ncncc1-c1cc(C(=O)NC(C)(C)CO)cc(-c2ccc(Cl)cc2)n1 [Example 13, 2-(4-Chlorophenyl)-N-(1-hydroxy-2-methylpropan-2-yl)-6-(4-propan-2-yl-pyrimidin-5-yl)-pyridine-4-carboxamide]
Kb [1]: 200 nM

CC(C)c1ncncc1-c1cc(C(=O)NC(C)(C)C(F)(F)F)cc(-c2ccc(Cl)cc2)n1 [Example 14, 2-(4-Chlorophenyl)-6-(4-propan-2-yl-pyrimidin-5-yl)-N-(1,1,1-trifluoro-2-methylpropan-2-yl)-pyridine-4-carboxamide]
Kb [1]: 270 nM

COc1ccc(-c2cc(C(=O)NC(C)(C)C)cc(-c3cncnc3C(C)C)n2)cc1 [Example 15, N-tert-Butyl-2-(4-methoxyphenyl)-6-(4-propan-2-yl-pyrimidin-5-yl)-pyridine-4-carboxamide]
Kb [1]: 310 nM

Cc1ccc(-c2cc(C(=O)NC(C)(C)C)cc(-c3cncnc3C(C)C)n2)cc1F [Example 16, N-tert-Butyl-2-(3-fluoro-4-methylphenyl)-6-(4-propan-2-yl-pyrimidin-5-yl)-pyridine-4-carboxamide]
Kb [1]: 250 nM

CCC(C)(C)NC(=O)c1cc(-c2ccc(F)cc2)nc(-c2cncnc2C(C)C)c1 [Example 18, 2-(4-Fluorophenyl)-N-(2-methylbutan-2-yl)-6-(4-propan-2-yl-pyrimidin-5-yl)-pyridine-4-carboxamide]
Kb [1]: 120 nM

CCc1ncncc1-c1cc(C(=O)NC(C)(C)C)cc(-c2ccc(F)cc2)n1 [Example 19, N-tert-Butyl-2-(4-ethyl-pyrimidin-5-yl)-6-(4-fluorophenyl)-pyridine-4-carboxamide]
Kb [1]: 180 nM

Cc1ncncc1-c1cc(C(=O)NC(C)(C)C)cc(-c2ccc(F)cc2)n1 [Example 20, N-tert-Butyl-2-(4-fluorophenyl)-6-(4-methylpyrimidin-5-yl)-pyridine-4-carboxamide]
Kb [1]: 480 nM

CC(C)(C)NC(=O)c1cc(-c2ccc(F)cc2)nc(-c2cncnc2C2CC2)c1 [Example 21, N-tert-Butyl-2-(4-cyclopropylpyrimidin-5-yl)-6-(4-fluorophenyl)-pyridine-4-carboxamide]
Kb [1]: 560 nM

CC(C)(C)NC(=O)c1cc(-c2ccc(F)cc2)nc(-c2cncnc2C(C)(C)C)c1 [Example 22, N-tert-Butyl-2-(4-tert-butyl-pyrimidin-5-yl)-6-(4-fluorophenyl)-pyridine-4-carboxamide]
Kb [1]: 63 nM

CC(C)(C)NC(=O)c1cc(-c2ccc(Cl)cc2)nc(-c2cncnc2C(C)(C)C)c1 [Example 23, N-tert-Butyl-2-(4-tert-butylpyrimidin-5-yl)-6-(4-chlorophenyl)-pyridine-4-carboxamide]
Kb [1]: 140 nM

CC(C)(C)NC(=O)c1cc(-c2ccc(C(F)(F)F)cc2)nc(-c2cncnc2C(C)(C)C)c1 [Example 24, N-tert-Butyl-2-(4-tert-butyl-pyrimidin-5-yl)-6-[4-(trifluoromethyl)-phenyl]-pyridine-4-carboxamide]
Kb [1]: 290 nM

CC(C)c1ccncc1-c1cc(C(=O)NC(C)(C)C)cc(-c2ccc(C(F)(F)F)cc2)n1 [Example 25, N-tert-Butyl-2-(4-propan-2-yl-pyridin-3-yl)-6-[4-(trifluoromethyl)-phenyl]-pyridine-4-carboxamide]
Kb [1]: 350 nM

CC(C)c1ccncc1-c1cc(C(=O)NC(C)(C)C)cc(-c2ccc(Cl)cc2)n1 [Example 26, N-tert-Butyl-2-(4-chlorophenyl)-6-(4-propan-2-yl-pyridin-3-yl)-pyridine-4-carboxamide]
Kb [1]: 310 nM

CC(C)c1ccncc1-c1cc(C(=O)NC(C)(C)C)cc(-c2ccc(F)cc2)n1 [Example 27, N-tert-Butyl-2-(4-fluorophenyl)-6-(4-propan-2-yl-pyridin-3-yl)-pyridine-4-carboxamide]
Kb [1]: 170 nM
